System: iPSC-RPE cells
Test: Phagocytosis test with labelled bovine outer segments, flow cytometry
Format: cell-based, human
Settings: 4 hours incubation with outer segments; One-way ANOVA showed no difference
Method: iPSC-RPE cells were provided purified bovine outer segment (mostly rod photoreceptors) to phagocytose. The outer segments were labelled with a dye that fluoresce when the outer segments are phagocytosed. RPE cells were incubated for 4 hours with outer segments and then analyzed with flow cytometry to measure outer segment ingestion or put back in the incubator for 20 hours before performing flow cytometry to measure outer segment digestion.

Q: For O=C(Nc1cccc2cccnc12)c1ccc(N2C(=O)C3C4C=CC(C4)C3C2=O)cc1 (stereo not drawn) [ENDO-1-IWR, 4-(1,3,3a,4,7,7a-Hexahydro-1,3-dioxo-4,7-methano-2H-isoindol-2-yl)-N-8-quinolinyl-Benzamide], which outer segment ingestion is on record?
A: ingest (peripheral cells) more outer segments

— US20240261474A1, “BIODEGRADABLE TISSUE SCAFFOLD WITH SECONDARY MATRIX TO HOST WEAKLY ADHERENT CELLS” (THE U.S.A., as represented by the Secretary, Department of …, priority 2021, published 2024)
